# In patent publication US9200253B1, “Method of producing erythrocytes” (Anthrogenesis Corporation, priority 2007, dated 2015):
# Columns and labels:
# [1] = tested on: human UCB derived CD34+ cells; experiment: Ex-vivo expansion of CD34+ cells in short-term serum-free, cytokine supplemented culture; type: cell-based; conditions: for CD34+ phenotype in the expanded population: control 10-30%; for total nucleated cell expansion: not impacted vs control
# Procedure: The ability of pomalidomide to enhance the expansion of human UCB derived CD34^+ cells in a short-term serum-free, cytokine supplemented culture system was evaluated. CD34^+ progenitor cells were enriched from cryopreserved UCB units to >90% purity and seeded (10^4 CD34^+ cells) in 1 mL of growth medium, which consists of IMDM plus serum substitute BIT (BSA, recombinant human insulin and transferrin, 20%), in the presence of SCF (50 ng/mL), Flt-3 ligand (50 ng/mL), and IL-3 (10 ng/mL). Pomalidomide, dissolved in DMSO, was supplemented at 2.7 μg/mL. The culture was incubated at 37° C., 5% CO2 for 12 days, with fresh medium added at day 7. Pomalidomide-free cultures with or without DMSO (0.05% v/v) were used as controls.
# [2] = tested on: Pomalidomide-expanded CD34+ cells; experiment: Cumulative colony forming units of expanded CD34+ cells; type: cell-based, human
# CD34+ cells = experiment: Scaled-up CD34+ expansion in gas-permeable fluorocarbon culture bag; type: cell-based, human
# Procedure: CD34^+ cells were seeded in 10^4/mL pomalidomide-supplemented medium in a flexible, gas-permeable fluorocarbon culture bag (American Fluoroseal). After 7 days of incubation, the culture was centrifuged and exchanged with fresh pomalidomide-supplemented medium at three times the initial volume. By day 12, TNC and CD34^+ expansion were 350 (range: 250-700) and 200 (range: 100-450) fold, respectively (FIG. 3). Viability was 86% (range: 80-90%) by trypan blue. A total of 20 million CD34^+ cells were harvested.
# [3] = first experiment, 2.7 μg/mL, 12 days
# [4] = day 12, seeded 10^4/mL, medium exchanged day 7 (FIG. 3)
structure (smiles),measurement,setting,value
"Nc1cccc2c1C(=O)N(C1CCC(=O)NC1=O)C2=O (centres unmarked) [pomalidomide, 4-(Amino)-2-(2,6-dioxo(3-piperidyl))-isoindoline-1,3-dione]",CD38 expression on cultured cells,[1]; [3],appeared to down-regulate CD38 expression
same,CD38 negative fraction of expanded CD34+ cells,[1]; [3],95%
same,CD34+ phenotype in the expanded population,[1]; [3],40-60%
same,CD133 level on expanded CD34+ cells,"[1]; first experiment, 2.7 μg/mL, 12 days, control 40%",15%
same,total nucleated cell expansion,"[1]; first experiment, pomalidomide 2.7 μg/mL, 12 days",200-350 fold
same,CD38 expression on cultured cells,"[1]; second, similar experiment",appeared to down-regulate CD38 expression
same,CD38 negative fraction of expanded CD34+ cells,"[1]; second, similar experiment",97%
same,CD34+ phenotype in the expanded population,"[1]; second, similar experiment (FIG. 2)",40-60%
same,total nucleated cell expansion,"[1]; second, similar experiment, 2.7 μg/mL, 12 days",200-350 fold
same,CD133 level on expanded CD34+ cells,"[1]; second, similar experiment, control 32.3%",11.5%
same,cumulative colony forming units relative to expanded controls,[2]; first experiment,substantial improvement
same,cumulative colony forming units relative to expanded controls,"[2]; second, similar experiment",substantial improvement
same,Viability by trypan blue,CD34+ cells; day 12,86%
same,total CD34+ cells harvested,CD34+ cells; day 12,20 million
same,CD34+ expansion,CD34+ cells; [4],200 (range: 100-450) fold
same,TNC expansion,CD34+ cells; [4],350 (range: 250-700) fold
same,ex-vivo expansion of placental derived CD34+ progenitors,CD34+ cells; overall conclusion,significantly enhanced
